Consider 18 compounds from patent US8951997B2, “Substituted isoquinoline derivative” (D. Western Therapeutics Institute, Inc., priority 2009, dated 2015).

Counter-ions that a name gives are not always drawn. Where only a bound is given, the exact number is not on record here.

The assay has as its system rabbits (New Zealand White). In words: Ocular hypotensive effect in rabbits. Format: in vivo, rabbit. The note with it: Oryctolagus cuniculus, topical, 0.04 mL dropped to one eye, vehicle to contralateral eye, test compound solution concentration 10 (W/V), read-out: Maximum ocular hypotensive rate. Here is the method: The compound of the present invention was administered to rabbits (New Zealand White, sex: male, 3 to 7 per group) and evaluated for its ocular hypotensive effect.
Each test compound was dissolved in a vehicle (1.04 g of sodium dihydrogen phosphate dihydrate and 0.5 g of sodium chloride dissolved in purified water and then adjusted to pH 7.0 with sodium hydroxide to make the total amount to 100 mL) to prepare a test compound solution with a concentration of 10 (W/V).
The intraocular pressures of the rabbits were measured using Tiolat TonoVet handheld tonometer immediately before administration of test compound. The test compound solution and the vehicle were dropped at a volume of 0.04 mL to one eye and the contralateral eye, respectively, and the intraocular pressures were measured over time in the same way as above. The rate of the intraocular pressure of the eye receiving the test compound solution to that of the eye receiving the vehicle was calculated as an ocular hypotensive rate.
On to `O=S(=O)(c1ccc2cnccc2c1)N1CCCCNCC1CF` (stereo in doubt) [Example 27, (R)-6-(2-fluoromethyl-1,4-diazocan-1-ylsulfonyl)isoquinoline dihydrochloride], for which the inhibition in vivo at 10 % is no less than 15%. Next, `O=S(=O)(c1ccc2cnccc2c1)N1CCNCC1` [Example 1, 6-(piperazin-1-ylsulfonyl)isoquinoline dihydrochloride]: no less than 15%. As to `N[C@@H]1CCN(S(=O)(=O)c2ccc3cnccc3c2)C1` [Example 2, (R)-6-(3-aminopyrrolidin-1-ylsulfonyl)isoquinoline dihydrochloride], the inhibition in vivo at 10 % was no less than 15%. For `O=S(=O)(c1ccc2cnccc2c1)N1CCCNCC1` [Example 3, 6-(1,4-diazepan-1-ylsulfonyl)isoquinoline dihydrochloride] the value was no less than 15%; for `NC1CCN(S(=O)(=O)c2ccc3cnccc3c2)CC1` [Example 4, 6-(4-aminopiperidin-1-ylsulfonyl)isoquinoline dihydrochloride], 5 to 15%. For `O=S(=O)(c1ccc2cnccc2c1Br)N1CCCNCC1` [Example 5, 5-bromo-6-(1,4-diazepan-1-ylsulfonyl)isoquinoline dihydrochloride] the value was no less than 15%; for `O=S(=O)(c1cc(F)c2cnccc2c1)N1CCCNCC1` [Example 6, 6-(1,4-diazepan-1-ylsulfonyl)-8-fluoroisoquinoline dihydrochloride], 5 to 15%. As for `O=S(=O)(c1ccc2cnccc2c1)N1C[C@@H]2C[C@H]1CN2` [Example 7, 6-{(1S,4S)-2,5-diazabicyclo[2.2.1]heptan-2-ylsulfonyl}isoquinoline dihydrochloride], the inhibition in vivo at 10 % was no less than 15%. For `C[C@@H]1CNC/C=C\CN1S(=O)(=O)c1ccc2cnccc2c1` [Example 8, (R,Z)-6-(2-methyl-2,3,4,5-tetrahydro-1,4-diazocin-1(8H)-ylsulfonyl)isoquinoline dihydrochloride] the value was no less than 15%. Consider `O=S(=O)(c1ccc2cnccc2c1)N1CCOCC1` [Example 9, 6-(morpholin-1-ylsulfonyl)isoquinoline hydrochloride], for which the inhibition in vivo at 10 % is 5 to 15%. Consider `CN[C@H]1CCN(S(=O)(=O)c2ccc3cnccc3c2)C1` [Example 10, (S)-6-{3-(N-methylamino)pyrrolidin-1-ylsulfonyl}isoquinoline dihydrochloride], for which the inhibition in vivo at 10 % is 5 to 15%. For `C[C@H]1CNCCCN1S(=O)(=O)c1ccc2cnccc2c1` [Example 12, (S)-6-(2-methyl-1,4-diazepan-1-ylsulfonyl)isoquinoline dihydrochloride] the value was no less than 15%; for `C[C@H]1CNCCN1S(=O)(=O)c1ccc2cnccc2c1` [Example 13, (S)-6-(2-methylpiperazin-1-ylsulfonyl)isoquinoline dihydrochloride], no less than 15%. For `CC1CN(S(=O)(=O)c2ccc3cnccc3c2)CCCN1` (stereo not drawn) [Example 16, 6-(3-methyl-1,4-diazepan-1-ylsulfonyl)isoquinoline dihydrochloride] the value was no less than 15%; for `CC1CCNCCN1S(=O)(=O)c1ccc2cnccc2c1` (stereo not drawn) [Example 17, 6-(7-methyl-1,4-diazepan-1-ylsulfonyl)isoquinoline dihydrochloride], no less than 15%. For `CC[C@@H]1CNCCCN1S(=O)(=O)c1ccc2cnccc2c1` [Example 19, (R)-6-(2-ethyl-1,4-diazepan-1-ylsulfonyl)isoquinoline dihydrochloride] the value was no less than 15%. Regarding `CC[C@@H]1CNCCCCN1S(=O)(=O)c1ccc2cnccc2c1` [Example 20, (R)-6-(2-ethyl-1,4-diazocan-1-ylsulfonyl)isoquinoline dihydrochloride], the inhibition in vivo at 10 % is no less than 15%. Consider `O=S(=O)(c1ccc2cnccc2c1)N1CCCCNCC1` [Example 21, 6-(1,4-diazocan-1-ylsulfonyl)isoquinoline dihydrochloride], for which the inhibition in vivo at 10 % is no less than 15%.
